Test results taken from patent publication US20230340498A1, “COMPOSITIONS AND METHODS FOR INDUCIBLE ALTERNATIVE SPLICING REGULATION OF GENE EXPRESSION” (The Children's Hospital of Philadelphia, priority 2020, published 2023).

Columns and labels:
AAV9.X^on.eGFP = assay: In vivo induction of AAV9.X^on.eGFP in mice by oral LMI070
Description: Animals and histology. Animal protocols were approved by The Children’s Hospital of Philadelphia Institutional Animal Care and Use Committee. Five to six-week-old male C57Bl6/j mice were obtained from Jackson Laboratories (Bar Harbor, ME, USA). AAV vectors (AAV9. X^on.eGFP or AAVPHBeB.X^on.eGFP; generated at the CHOP Research Vector Core) were administrated by retroorbital injection at 7-8 weeks of age with a total of 3E11 vg in 150 µL infused. After 4 weeks, a single dose of LMI070 (5 or 50 mg/kg, MedChemExpress HY-19620) or vehicle solution was administrated by oral gavage. After 18-24 h, mice used for biochemical or molecular studies were anesthetized and perfused with 0.9% cold saline mixed with 2-ml RNAlater (Ambion) solution. Brains and liver samples were collected, flash frozen in liquid nitrogen, and stored at -80 C until use. For immunohistochemistry studies, mice were perfused with 15 mL ice-cold 0.1 M PBS followed by 15 mL 4% paraformaldehyde. For brain sections, eGFP visualization was done by IHC using rabbit anti-GFP antibody (Invitrogen, 1:200) followed by Alexa488-conjugated goat anti-rabbit (Invitrogen, 1:500) and Alexa488-conjugated chicken anti-goat (Invitrogen, 1:500). Slices were mounted on Superfrost plus slides and coverslips mounted using fluoro-gel mounting media. Sections were analyzed using a DM6000B Leica microscope equipped with a L5 ET filter cube (ex:em of 470±20:525±15 nm and dichroic 495 nm), a 20X HC APO PLAN (N.A. 0.70) lens connected to a Sola Light Engine LED light source (Lumencor). Images were collected with a Hammatsu Orca flash4.0 monochrome camera controlled by Leica LAS X (v.3.0.3) software. Brain images represent a 7.98 µm thick z-stack deconvoluted by 3 iterations of the Blind algorithm.
RNA extraction, RT-PCR, and Splicing assays. Total RNA was extracted using Trizol (Life Technologies) according to the manufacturer’s protocol, with the exception of 1 µL Glycoblue (Life Technologies) in addition to the aqueous phase on the isopropanol precipitation step and a single wash with cold 70% ethanol. To determine HTT expression levels after transfection, RNA samples were quantified by spectrophotometry and subsequently cDNAs generated from […] of total RNA with random hexamers (TaqMan RT reagents, Applied Biosystems). To determine human HTT expression levels in HEK293 cells, we used TaqMan probes for human HTT and glyceraldehyde 3-phosphate dehydrogenase (GAPDH) mRNAs obtained from Applied Biosystems. Relative HTT gene expression was determined using the ddCt method. To determine splicing of the SMN2-on and Xon switches, 2 µg of total RNA from HEK293 cells or tissue samples was treated with DNAseI Free kit (Thermofisher) followed by cDNA generation using the High capacity cDNA kit (Thermofisher). Splicing was determined by PCR using the Phusion High-Fidelity polymerase (Thermofisher) and PCR products separated on a 2.5% agarose gel pre-stained with EtBr and spliced-in and spliced-out band densitometry performed using with the ChemiDoc Imaging System (BioRad) and Image Lab analysis software. Splicing induction from mouse tissues was determined using two custom TaqMan assays designed to determine total or LMI070-spliced in mRNA transcripts. The percentage of induction was determined by dividing the average Ct novel exon and average Ct Total, relative to control animals injected with AAV virus plus vehicle.
Western Blots. HEK293 cells were rinsed and lysed with Passive Lysis Buffer (PBL, Promega), protein concentrations determined using the DC protein assay (Bio-Rad), and 10-20 µg of protein loaded on a 3%-8% NuPAGE Tris-Acetate Gel in tris-acetate buffer (Novex Life Technologies) or a 4-12% NuPAGE TrisBis NuPAGE gels in MES buffer (Novex Life Technologies) to determine HTT, SaCas9, or eGFP protein levels, respectively, with β-catenin as loading control. […]

HEK293 cells = assay: Differential gene expression analysis (DESeq2) of LMI070 vs DMSO treated HEK293 cells; format: cell-based, Human
Description: Differential gene expression analysis was performed using DESeq2 to compare samples from the LMI070 and DMSO conditions (Love et al., 2014). To visualize the abundance of meaningfully differentially expressed genes, a volcano plot was generated with a .05 Benjamini-Hochberg adjusted p-value threshold and a 0.1 log fold change threshold.
The pseudoexons identified in LMI070 treated samples share a strong 3′ AGAGUA motif consistent with the previously identified U1 RNA binding site targeted by LMI070 (FIG. 2C) (Cheung et al., 2018). To experimentally validate the identified LMI070 induced splicing events, primer pairs binding the flanking exons of the top 5 candidate genes (FIGS. 2A and 2F-2J) were generated. […] The impact of LMI070 treatment on global gene expression was evaluated by assessing differential expression analysis.

[1] = spliced expression cassette relative to vehicle, LMI070 50 mg/kg
[2] = p < 0.05, Benjamin-Hochberg correction, LMI070 vs DMSO

`CC1(C)CC(Oc2ccc(-c3ccc(-c4cn[nH]c4)cc3O)nn2)CC(C)(C)N1` [LMI070, 5-(1H-Pyrazol-4-yl)-2-(6-((2,2,6,6-tetramethylpiperidin-4-yl)oxy)pyridazin-3-yl)phenol] was tested, and the “eGFP expression in sections from liver” value (AAV9.X^on.eGFP; AAV9.X^on.eGFP 3E11 vg/mouse IV, single dose LMI070 5 or 50 mg/kg, 24 h later) was “notable eGFP expression”, the “induction in liver after repeat dosing” value (AAV9.X^on.eGFP; LMI070 50 mg/kg oral, second dose after one week washout, histology, western blot, splicing assay) was “evident in liver after the first and the second dose” and the “induction in skeletal muscle and heart” value (AAV9.X^on.eGFP; LMI070 50 mg/kg oral, histology and splicing assay) was “notable”. The “protein levels and novel exon splicing versus dose” value (AAV9.X^on.eGFP; liver, LMI070 5 or 50 mg/kg) was “directly correlated to the LMI070 dose”, the “relative level of induction in heart” value (AAV9.X^on.eGFP; [1]) was ~ 3000 fold and the “relative level of induction in liver” value (AAV9.X^on.eGFP; [1]) was about 1000 fold. The “downregulated genes after filtering out low fold-change values” (HEK293 cells; filtered <0.1 fold) was 9, the “upregulated genes after filtering out low fold-change values” (HEK293 cells; filtered <0.1 fold) was 5 and the “downregulated genes passing the threshold for significance” value (HEK293 cells; [2]) was 24. For the same compound, the “upregulated genes passing the threshold for significance” value (HEK293 cells; [2]) was 6.
